Results on 116 compounds are retold here after a melting point compilation (Tetko et al.).

`CC(C)(C)c1ccc(C(=O)c2ccccc2)cc1` registered a melting point of 40 °C.

`Clc1ccc2[nH]c(C(Cl)(Cl)Cl)nc2c1` returned a melting point of 223 to 229 °C.

In turn, `CCCCCCCCC(=O)OCCCCCCC` displayed a melting point of -15.5 °C.

The compound `COC(=O)c1cnc(Cl)nc1` had a melting point of 76 to 80 °C.

For the compound `Cc1cc(Cl)ccc1OCC(=O)O`, the melting point was found to be 120 °C.

Compound `CC(C(=O)Nc1ccc(F)c(Cl)c1)(C(F)(F)F)C(F)(F)F` registered a melting point of 72 °C.

On to `Cc1cc(N=Nc2ccc(N)cc2)c(C(C)C)cc1N=Nc1ccc(N)cc1`, for which the melting point is 177 °C.

With `COC(=O)c1c(C)[nH]c(C)c1C=O`, the melting point stood at 160 °C.

`[O-][P+](c1ccccc1)(c1ccccc1)C1C2=C(CCCC2)OC2=C1CCCC2` yielded a melting point of 157 °C.

`CNCc1sc(-c2ccccc2)nc1-c1ccccc1`: the melting point is 87 to 88 °C.

As to `O=C(NC(=O)c1c(F)cccc1F)Nc1ccc(Oc2ccc(C(F)(F)F)cc2Cl)cc1F`, the melting point amounted to 167 °C.

In turn, `Cc1cc(=O)[nH]cc1Br` registered a melting point of 196 to 201 °C.

In turn, `O=[N+]([O-])c1cc(-c2ccccc2)ccc1O` registered a melting point of 67 °C.

Compound `CC(/C=C(\C)c1ccc(-c2ccccc2)cc1)=NNc1ccc([N+](=O)[O-])cc1[N+](=O)[O-]` came in with a melting point of 200 to 201 °C.

`O=C(O)/C=C/c1ccc(C(F)(F)F)cc1` returned a melting point of 230 to 234 °C.

Compound `ON=CNc1ccc(Cl)nn1` gave a melting point of 207 to 211 °C.

Consider `Cc1ccc(S(=O)c2ccc(C)cc2)cc1`, for which the melting point is 95 °C.

`COc1ccc(S(=O)(=O)Cl)cc1OC` had a melting point of 68 °C.

Regarding `CC(C)(C)c1cc(C(C)(C)C)c2oc(C(=O)O)cc(=O)c2c1`, the melting point fell in the range of 229 to 236 °C.

With `CN(C)S(=O)N(C)C`, the melting point came out at 31 °C.

For the compound `ClCc1cc(-c2ccco2)on1`, the melting point lay in the range of 47 to 49 °C.

In the case of `O=Cc1ccc(N2CCCC2)cn1`, the melting point fell in the range of 101 to 102 °C.

Turning to `Nc1cc(Cl)c(Cl)cc1N`, the melting point lay within 162 to 163 °C.

With `O=[N+]([O-])c1ccc(O)c(-c2cc([N+](=O)[O-])ccc2O)c1`, the melting point came out at 186 °C.

Compound `COC(=O)c1scc(C)c1Cl` registered a melting point of 76 to 78 °C.

As to `COC(=O)c1c(C)noc1-c1cc(C)on1`, the melting point fell in the range of 84 to 86 °C.

Regarding `FC(F)=C(Cl)C(F)(F)F`, the melting point was -130 °C.

Take `Cc1ccc(O)c2c1CCC2`: the melting point is 82 to 83 °C.

In turn, `Nc1ccccc1SC(=O)c1ccccc1` returned a melting point of 105 °C.

Regarding `Nc1ccccc1C(=O)OCC=Cc1ccccc1`, the melting point stood at 61 °C.

In the case of `N=C1NCCS1`, the melting point was found to be 85.3 °C.

`CC(C)(C)C=O`: the melting point was determined as 6 °C.

`N#Cc1c(C(F)(F)F)cc(-c2cccs2)n(N)c1=O` had a melting point of 234 °C.

On to `N#Cc1ccc2occc2c1`, for which the melting point is 84 to 86 °C.

In turn, `Cc1ccc2cc(N)ccc2n1` yielded a melting point of 190 °C.

The compound `O=C(Nc1ccc(Cl)cc1)Nc1ccc(Cl)cc1` displayed a melting point of 270 °C.

`CC(CC(C)=NO)=NO` displayed a melting point of 149 °C.

In turn, `CCCCCCOc1ccccc1` had a melting point of -19 °C.

For `O=[N+]([O-])c1ccc(C=NN(c2ccccc2)P(=O)(N2CC2)N2CC2)cc1`, the melting point stood at 150 °C.

For `CC(C)(C=NO)NO`, the melting point was 98 to 100 °C.

`COc1ccc(CC#N)cc1Br` came in with a melting point of 52 °C.

On to `COC(=O)c1cc(C=O)cn1C`, for which the melting point was 100 to 101 °C.

In turn, `O=C(O)c1cc(Cl)c(Cl)cc1Cl` yielded a melting point of 166 °C.

`NC(=NO)c1ccc(OC(F)(F)F)cc1` displayed a melting point of 113 to 115 °C.

Consider `N#Cc1scc2c1OCCO2`, for which the melting point is 70 °C.

`Cc1cc(C)oc(=O)c1` yielded a melting point of 51.5 °C.

The compound `Clc1cccc2cccc(Cl)c12` returned a melting point of 89 °C.

Compound `COC(=O)[C@H](C)NC(=O)c1ccccc1` registered a melting point of 61 to 63 °C.

`CNC(=NCCSCc1nc[nH]c1C)NC#N` displayed a melting point of 141 °C.

Regarding `COc1c(Cl)cccc1[N+](=O)[O-]`, the melting point was 58 °C.

With `O=c1c2ccccc2cc2n1CCc1ccccc1-2`, the melting point amounted to 101 °C.

The compound `CC=CC(C)(C)C` registered a melting point of -115 °C.

In turn, `CC=C(C)C(=O)OC1CCN2CC=C(COC(=O)C(O)(C(C)OC)C(C)(C)O)C12` (stereo unspecified) showed a melting point of 97 °C.

In the case of `O=C(O)c1ccc(-c2ncccn2)cc1`, the melting point was in the range of 238 to 240 °C.

In turn, `CCOC(=O)c1c[nH]c(=O)nc1C(F)(F)F` gave a melting point of 165 °C.

Turning to `COC(=O)CCCCCCCCCCCC(=O)OC`, the melting point came out at 36 °C.

As for `CCCCC(CC)COC(=O)OOC(C)(C)C` (stereo unspecified), the melting point is -50 °C.

The compound `CCCCCCCCCCCCCCCCC1CCCCC1` showed a melting point of 33.6 °C.

`Cc1cc(Br)cnc1NC(=O)C(C)(C)C`: the melting point came to 127 °C.

`Nc1cccc(I)c1` registered a melting point of 33 °C.

Take `Cc1cccc2ncccc12`: the melting point is 19 °C.

Compound `NC(=O)c1cc(Cl)nc(Cl)c1` came in with a melting point of 202 to 206 °C.

Regarding `CCOC(=O)c1sc2nccnc2c1N`, the melting point was found to be 120 °C.

Compound `COc1ccc(C=O)c(Cl)c1OC` yielded a melting point of 71 to 72 °C.

For `Fc1ccc(C=Nn2c(C(F)(F)F)n[nH]c2=S)cc1`, the melting point worked out at 276 °C.

In turn, `ICC(CI)(CI)CI` registered a melting point of 225 °C.

On to `CCCCCCCCCCCCCCCC1CCCCC1`, for which the melting point turned out to be 29 °C.

With `Fc1c(CBr)cccc1C(F)(F)F`, the melting point came to 48 °C.

Compound `C=CC[Si](c1ccccc1)(c1ccccc1)c1ccccc1` gave a melting point of 88 to 90 °C.

For the compound `CN1CCN(C)c2cc(C#N)ccc21`, the melting point fell in the range of 80 to 82 °C.

Regarding `CCN1CCN(C(=O)N[C@@H](C(=O)O)c2ccccc2)C(=O)C1=O`, the melting point was 171 °C.

On to `c1ccc(CC2CCNCC2)cc1`, for which the melting point came to 16.8 °C.

On to `Cc1ccc(F)c(O)c1Cl`, for which the melting point was determined as 49 °C.

Consider `COc1ccc(OC)c2c1CC2=O`, for which the melting point came to 105 °C.

As to `O=C(O)[C@@H](O)CCN1C(=O)c2ccccc2C1=O`, the melting point lay within 157 to 159 °C.

As to `O=C(O)[C@@H]1CCCC[C@H]1C(=O)c1ccccc1` (relative stereo), the melting point is 150 to 153 °C.

Consider `CC(/C=C/c1ccccc1)=C\C(C)=N\Nc1ccc([N+](=O)[O-])cc1[N+](=O)[O-]`, for which the melting point fell in the range of 232 to 234 °C.

As for `C=CC(C)(O)CCC1C(C)(O)CCC2C(C)(C)CCCC21C` (stereo unspecified), the melting point came out at 97 °C.

For the compound `O=C(O)C#CC(=O)O`, the melting point lay within 180 to 187 °C.

The compound `NC(C(=O)O)C(O)c1ccccc1` (racemic) gave a melting point of 186 °C.

Consider `COC(=O)c1cccc([N+](=O)[O-])c1NC(C)=O`, for which the melting point lay within 120 to 121 °C.

Compound `CCO[Si](c1ccccc1)(c1ccccc1)c1ccccc1` came in with a melting point of 65 °C.

`Cc1[nH]c2ccccc2c1CC(=O)O` came in with a melting point of 200 °C.

For the compound `Clc1ccc2cc(Cl)ccc2c1`, the melting point turned out to be 140 °C.

On to `C[Si]1(C)O[Si](C)(C)O[Si](C)(C)O[Si](C)(C)O[Si](C)(C)O[Si](C)(C)O1`, for which the melting point was -3 °C.

In turn, `Nc1cc(C(F)(F)F)ccc1N1CCCCC1` gave a melting point of 41 to 43 °C.

Take `CCc1ccc(CCO)nc1`: the melting point turned out to be 42 °C.

The compound `CC(C)(C)OC(=O)N1CCN(c2ccc(C#N)cc2)CC1` had a melting point of 124 to 125 °C.

As to `O=NN(CCCl)C(=O)NC1CCCCC1`, the melting point amounted to 90 °C.

As to `Cc1ccc(C(=O)O)c(C(=O)O)c1`, the melting point lay in the range of 146 to 149 °C.

For the compound `CN1N=C(C(F)(F)F)CC1=O`, the melting point was 179 °C.

The compound `C=CC(=O)N1CCOCC1` came in with a melting point of -8 °C.

As for `N#CC(c1ccccc1)N1CCOCC1` (stereo unspecified), the melting point lay in the range of 69 to 71 °C.

In turn, `O=C1CCCC(=O)O1` came in with a melting point of 56.3 °C.

On to `COC(=O)c1cc(C)c(S(=O)(=O)Cl)s1`, for which the melting point was 40 to 41 °C.

The compound `Nc1ccc(Cn2ccnc2)cc1` gave a melting point of 128 to 130 °C.

In the case of `O=C(O)c1c(F)c(F)cc(F)c1F`, the melting point was found to be 151 °C.

`CC(C)(C)OC(=O)N1CCCC(Oc2ccccc2[N+](=O)[O-])C1` (stereo unspecified) had a melting point of 74 to 75 °C.

Compound `Cc1ccc(Br)cc1[N+](=O)[O-]` had a melting point of 47 °C.

Compound `COc1ccc2c(=O)c(C)c(-c3ccccc3)oc2c1CN(C)C` returned a melting point of 110 °C.

`O=C(O)C=CC(=O)Nc1ccc(I)cc1` returned a melting point of 194 °C.

`Nc1cccc(C(=O)O)c1O` registered a melting point of 240 °C.

Compound `O=Cc1ccc2nsnc2c1` displayed a melting point of 90 to 92 °C.

Turning to `CCCCCCCCCCCCCCCCS(=O)(=O)c1ccc(N)cc1`, the melting point was 115 to 117 °C.

For `Cc1cc(=O)[nH]c2c(/N=N/c3ccc(Cl)cc3)c(N)nn12`, the melting point lay within 307 to 308 °C.

In turn, `CC(=O)Oc1ccccc1C(=O)OCC(=O)N(C(C)C)C(C)C` displayed a melting point of 108 °C.

As to `CCCCc1nc(CO)c[nH]1`, the melting point was in the range of 94 to 97 °C.

`Brc1ccc2oc3ccccc3c2c1` came in with a melting point of 110 °C.

For the compound `OCN(CO)c1nc(N(CO)CO)nc(N(CO)CO)n1`, the melting point came out at 137 °C.

For `OC1CCCC1C1CCCC1` (stereo unspecified), the melting point amounted to 20 °C.

Compound `COc1ccc2c(c1)CC2C(=O)O` (stereo unspecified) gave a melting point of 83 to 89 °C.

On to `Cc1cc(Cl)ccc1NC(=S)N(C)C`, for which the melting point was 175 °C.

Compound `CCCCCCCCCCCCCC=CC(O)C(N)CO` (stereo unspecified) gave a melting point of 81 to 82 °C.

`Brc1ccc(-c2ccc(Br)s2)s1` returned a melting point of 143 to 146 °C.

As for `O=C(NC(Cc1cccs1)C(=O)O)OCC1c2ccccc2-c2ccccc21` (stereo unspecified), the melting point was 169 °C.

`Clc1ccc(CSc2ccc(Cl)cc2)cc1`: the melting point was found to be 75 °C.

A word on the melting point: it is the temperature, or range, at which the solid turns liquid.
